ChEMBL document CHEMBL4706511, “Structure-based design, synthesis and bioactivity evaluation of macrocyclic inhibitors of mutant isocitrate dehydrogenase 2 (IDH2) displaying activity in acute myeloid leukemia cells” (Eur J Med Chem, 2020)
Structures can show the parent of a compound that is named as a salt.

What was measured:
[1] = biological target: Isocitrate dehydrogenase [NADP], mitochondrial (Homo sapiens, UniProt P48735, R140Q); test: Inhibition of IDH2 R140Q mutant (unknown origin) assessed as reduction in NADPH consumption using alpha-ketoglutarate and NADPH as substrate preincubated with enzyme for 15 mins followed by substrate addition by fluorescence based assay
[2] = biological target: Isocitrate dehydrogenase [NADP], mitochondrial (Homo sapiens, UniProt P48735, R172K); test: Inhibition of IDH2 R172K mutant (unknown origin) assessed as reduction in NADPH consumption using alpha-ketoglutarate and NADPH as substrate preincubated with enzyme for 15 mins followed by substrate addition by fluorescence based assay
[3] = biological target: T1, Isocitrate dehydrogenase [NADP], mitochondrial (Homo sapiens, UniProt P48735); test: Inhibition of wild type IDH2 (unknown origin) assessed as reduction in NADPH production using sodium(D)-isocitrate and NADP as substrate preincubated with enzyme for 15 mins followed by substrate addition by fluorescence based assay
T1 sequence (P48735 whole entry): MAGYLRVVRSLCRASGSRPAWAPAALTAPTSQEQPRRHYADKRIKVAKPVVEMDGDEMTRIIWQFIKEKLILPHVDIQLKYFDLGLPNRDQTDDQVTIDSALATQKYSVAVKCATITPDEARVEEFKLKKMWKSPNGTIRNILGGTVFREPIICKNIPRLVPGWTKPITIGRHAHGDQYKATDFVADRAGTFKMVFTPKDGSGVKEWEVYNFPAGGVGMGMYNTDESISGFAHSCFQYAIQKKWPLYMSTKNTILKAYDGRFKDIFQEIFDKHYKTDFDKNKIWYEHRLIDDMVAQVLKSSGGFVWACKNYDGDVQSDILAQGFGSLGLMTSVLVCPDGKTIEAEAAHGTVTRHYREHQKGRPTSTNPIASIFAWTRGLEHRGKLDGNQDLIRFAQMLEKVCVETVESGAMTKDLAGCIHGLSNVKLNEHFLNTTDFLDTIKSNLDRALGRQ

[4] = Metabolic stability in human liver microsomes assessed as parent compound remaining at 100 ug/ml measured after 15 mins in presence of NADPH by LC-MS analysis; assay type: ADME, Microsome; conditions: at 100 µg/mL, read-out: Stabilty
[5] = Metabolic stability in human liver microsomes assessed as parent compound remaining at 100 ug/ml measured after 45 mins in presence of NADPH by LC-MS analysis; assay type: ADME, Microsome; conditions: at 100 µg/mL, read-out: Stabilty
[6] = Metabolic stability in human liver microsomes assessed as parent compound remaining at 100 ug/ml measured after 90 mins in presence of NADPH by LC-MS analysis; assay type: ADME, Microsome; conditions: at 100 µg/mL, read-out: Stabilty
WI-38 = test: Cytotoxicity aganist human WI-38 cells; assay type: cell-based
[7] = Cytotoxicity aganist human PBMC cells; assay type: cell-based
TF-1 = test: Cytotoxicity aganist human TF-1 cells harboring IDH2 mutant; assay type: functional, cell-based

Sequence of Isocitrate dehydrogenase [NADP], mitochondrial (Homo sapiens, UniProt P48735, R140Q) (P48735 40-452 R140Q limits assumed): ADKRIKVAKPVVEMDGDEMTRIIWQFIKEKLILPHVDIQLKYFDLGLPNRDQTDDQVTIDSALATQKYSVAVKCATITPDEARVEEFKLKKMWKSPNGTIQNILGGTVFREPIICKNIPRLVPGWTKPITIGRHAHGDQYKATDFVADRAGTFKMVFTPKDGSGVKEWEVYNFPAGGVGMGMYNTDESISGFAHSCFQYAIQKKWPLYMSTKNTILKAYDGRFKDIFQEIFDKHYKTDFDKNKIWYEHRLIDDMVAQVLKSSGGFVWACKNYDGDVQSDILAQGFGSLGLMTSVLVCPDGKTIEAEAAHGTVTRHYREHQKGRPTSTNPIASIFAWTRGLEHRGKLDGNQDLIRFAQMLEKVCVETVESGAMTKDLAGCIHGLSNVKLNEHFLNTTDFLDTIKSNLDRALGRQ
Sequence of Isocitrate dehydrogenase [NADP], mitochondrial (Homo sapiens, UniProt P48735, R172K) (P48735 40-452 R172K limits assumed): as the sequence (P48735 40-452 R140Q limits assumed) above, with Q101R, R133K counted along it

Row | SMILES | IC50 [1] | IC50 [2] | IC50 [3] | remaining at 0.25 h, 100 ug/ml [4] | remaining at 0.75 h, 100 ug/ml [5] | remaining at 1.5 h, 100 ug/ml [6] | IC50 (WI-38) | IC50 [7] | IC50 (TF-1)
1 | CC1(C)CNc2nc(nc(-c3cccc(C(F)(F)F)n3)n2)Nc2cc(cc(C(F)(F)F)c2)OCCCO1 | 79.3 nM | 27.4 nM | > 20000 nM |  |  |  |  |  | 
2 | FC(F)(F)c1cc2cc(c1)OC/C=C\CCCNc1nc(nc(-c3cccc(C(F)(F)F)n3)n1)N2 | 17.4 nM | 50.3 nM | > 20000 nM |  |  |  |  |  | 
3 | CC(C)(O)CNc1nc(Nc2ccnc(C(F)(F)F)c2)nc(-c2cccc(C(F)(F)F)n2)n1 [ENASIDENIB] | 35.9 nM | 269 nM | > 20000 nM |  |  |  |  |  | 
4 | FC(F)(F)c1cc2cc(c1)OCCCCCCNc1nc(nc(-c3cccc(C(F)(F)F)n3)n1)N2 | 133 nM | 45.5 nM | > 20000 nM | 93% | 97% | 85% |  |  | 
5 | CC1CNc2nc(nc(-c3cccc(C(F)(F)F)n3)n2)Nc2cc(cc(C(F)(F)F)c2)C/C=C\CO1 (configuration not stated) | 267 nM |  | > 20000 nM |  |  |  |  |  | 
6 | CC(C)(O)CNc1nc(Nc2ccnc(C(F)(F)F)c2)nc(-c2cccc(C(F)(F)F)n2)n1 [ENASIDENIB MESYLATE] | 124 nM | 319 nM |  |  |  |  |  |  | 
7 | FC(F)(F)c1cc2cc(c1)Nc1nc(nc(-c3cccc(C(F)(F)F)n3)n1)NCCOCCCC2 | 64.4 nM | 517 nM | > 20000 nM |  |  |  | 10000 nM | 10000 nM | 
8 | CC(C)(O)CNc1nc(Nc2ccncc2)nc(-c2cccc(C(F)(F)F)n2)n1 | 663 nM | > 10000 nM | > 20000 nM |  |  |  |  |  | > 10000 nM
9 | FC(F)(F)c1cc2cc(c1)Nc1nc(nc(-c3cccc(C(F)(F)F)n3)n1)NCC/C=C/C2 | 683 nM | > 10000 nM | > 20000 nM |  |  |  |  |  | > 10000 nM
10 | FC(F)(F)c1cc2cc(c1)Nc1nc(nc(-c3cccc(C(F)(F)F)n3)n1)NCCCCCCCC2 | 37.2 nM | 131 nM | > 20000 nM | > 99% | 75% | 72% |  |  | > 10000 nM
11 | FC(F)(F)c1cc2cc(c1)Nc1nc(nc(-c3cccc(C(F)(F)F)n3)n1)NCCCC/C=C/C2 | 37.6 nM | 46.9 nM | > 20000 nM |  |  |  |  |  | 
12 | CC(C)(O)CNc1nc(Nc2cccc(C(F)(F)F)c2)nc(-c2cccc(C(F)(F)F)n2)n1 | 26 nM | 119 nM | > 20000 nM | 86% | 81% | 81% |  |  | > 10000 nM
13 | CC(C)(O)CNc1nc(Nc2ccccc2)nc(-c2cccc(C(F)(F)F)n2)n1 | 98.2 nM | 1430 nM | > 20000 nM |  |  |  |  |  | 
14 | Cc1cc2cc(c1)Nc1nc(nc(-c3cccc(C(F)(F)F)n3)n1)NCCOCCCC2 | 22.2 nM | 1320 nM | > 20000 nM |  |  |  |  |  | 
15 | O=C1NCCCCNc2nc(nc(-c3cccc(C(F)(F)F)n3)n2)Nc2cc1cc(C(F)(F)F)c2 | 699 nM | > 10000 nM | > 20000 nM |  |  |  |  |  | 
16 | FC(F)(F)c1cc2cc(c1)Nc1nc(nc(-c3cccc(C(F)(F)F)n3)n1)NCCCCC/C=C/C2 | 37.6 nM | 92.7 nM | > 20000 nM |  |  |  |  |  | 
17 | FC(F)(F)c1cc2cc(c1)Nc1nc(nc(-c3cccc(C(F)(F)F)n3)n1)NCCCCC2 | 1240 nM | > 10000 nM | > 20000 nM |  |  |  |  |  | > 10000 nM

Row | SMILES | IC50 [1] | IC50 [2] | IC50 [3] | remaining at 0.25 h, 100 ug/ml [4] | remaining at 0.75 h, 100 ug/ml [5] | remaining at 1.5 h, 100 ug/ml [6] | IC50 (WI-38) | IC50 [7] | IC50 (TF-1)
18 | FC(F)(F)c1cccc(-c2nc3nc(n2)Nc2cc(Cl)cc(c2)CCCCOCCN3)n1 | 12.2 nM | 443 nM | > 20000 nM |  |  |  |  |  | 
19 | CC1(C)CCNc2nc(nc(-c3cccc(C(F)(F)F)n3)n2)Nc2cc(cc(C(F)(F)F)c2)CCCCO1 | 182 nM | 455 nM | > 20000 nM |  |  |  |  |  | 
20 | FC(F)(F)c1cccc(-c2nc3nc(n2)Nc2cc(Cl)cc(c2)C/C=C\COCCN3)n1 | 36 nM | 417 nM | > 20000 nM |  |  |  |  |  | 
21 | C=CCOC(C)(C)CNc1nc(Nc2ccccc2)nc(-c2cccc(C(F)(F)F)n2)n1 | 46 nM | 167 nM | > 20000 nM |  |  |  |  |  | > 10000 nM
22 | CC1(C)CNc2nc(nc(-c3cccc(C(F)(F)F)n3)n2)Nc2cc(cc(C(F)(F)F)c2)C/C=C\CO1 | 396 nM |  | > 20000 nM |  |  |  |  |  | 
23 | O=C1OCCCCCNc2nc(nc(-c3cccc(C(F)(F)F)n3)n2)Nc2cc1cc(C(F)(F)F)c2 | 105 nM | 314 nM | > 20000 nM |  |  |  |  |  | 
24 | FC(F)(F)c1cc2cc(c1)OC/C=C\CCNc1nc(nc(-c3cccc(C(F)(F)F)n3)n1)N2 | 18.4 nM | 1570 nM | > 20000 nM | 89% | 66% | 64% |  |  | 
25 | CC1(C)CNc2nc(nc(-c3cccc(C(F)(F)F)n3)n2)Nc2cc(cc(C(F)(F)F)c2)CCCCO1 | 38.5 nM | 9.6 nM | > 20000 nM |  |  |  | 10000 nM | 10000 nM | 
26 | FC(F)(F)c1cc2cc(c1)OCCCCCNc1nc(nc(-c3cccc(C(F)(F)F)n3)n1)N2 | 51 nM | 116 nM | > 20000 nM |  |  |  |  |  | 
27 | Fc1cc2cc(c1)Nc1nc(nc(-c3cccc(C(F)(F)F)n3)n1)NCCOC/C=C\C2 | 29.5 nM | 688 nM | > 20000 nM |  |  |  |  |  | 
28 | C=CCOC(C)(C)CNc1nc(Nc2cccc(C(F)(F)F)c2)nc(-c2cccc(C(F)(F)F)n2)n1 | 32.8 nM | 15.5 nM | > 20000 nM |  |  |  |  |  | 
29 | Cc1cc2cc(c1)Nc1nc(nc(-c3cccc(C(F)(F)F)n3)n1)NCCOC/C=C\C2 | 37.9 nM | 830 nM | > 20000 nM |  |  |  |  |  | 
30 | Fc1cc2cc(c1)Nc1nc(nc(-c3cccc(C(F)(F)F)n3)n1)NCCOCCCC2 | 18.6 nM | 881 nM | > 20000 nM |  |  |  |  |  | 
31 | FC(F)(F)c1cc2cc(c1)Nc1nc(nc(-c3cccc(C(F)(F)F)n3)n1)NCCCCCC2 | 6.1 nM | 219 nM | > 20000 nM | 95% | 94% | 85% |  |  | > 10000 nM
32 | FC(F)(F)c1cc2cc(c1)Nc1nc(nc(-c3cccc(C(F)(F)F)n3)n1)NCCCCCCC2 | 19.9 nM | 30.1 nM | > 20000 nM |  |  |  |  |  | 
33 | FC(F)(F)c1cc2cc(c1)Nc1nc(nc(-c3cccc(C(F)(F)F)n3)n1)NCCOC/C=C\C2 | 39.9 nM | 210 nM | > 20000 nM |  |  |  | 10000 nM | 10000 nM | 
34 | CC1CNc2nc(nc(-c3cccc(C(F)(F)F)n3)n2)Nc2cc(cc(C(F)(F)F)c2)CCCCO1 (configuration not stated) | 45.6 nM | 17.7 nM | > 20000 nM |  |  |  |  |  | 
